Test results as given in ChEMBL document CHEMBL2311509, “Synthesis and antiproliferative evaluation of 3-phenylquinolinylchalcone derivatives against non-small cell lung cancers and breast cancers” (Eur J Med Chem, 2013).
Calls of active or inactive are those of the source. No cut-off for these calls is given here.

tested on: MDA-MB-231; test: Induction of apoptosis in human MDA-MB-231 cells assessed as caspase 3 activation at 0.1 to 1 uM after 24 hrs by immunoblot method; assay type: functional, cell-based; settings: not given

SMILES | Activity
COc1ccc(-c2cc3ccccc3nc2/C=C/C(=O)c2ccc(Br)s2)cc1 | Dose-dependent effect

tested on: MDA-MB-231; test: Induction of apoptosis in human MDA-MB-231 cells assessed as PARP cleavage at 0.1 to 1 uM after 24 hrs by immunoblot method; assay type: functional, cell-based; settings: not given

SMILES | Activity
COc1ccc(-c2cc3ccccc3nc2/C=C/C(=O)c2ccc(Br)s2)cc1 | Dose-dependent effect

tested on: MDA-MB-231; test: Induction of morphological changes in human MDA-MB-231 cells at 0.5 uM after 24 hrs by light microscopy; assay type: functional, cell-based; settings: not given

SMILES | Activity
COc1ccc(-c2cc3ccccc3nc2/C=C/C(=O)c2ccc(Br)s2)cc1 | Active

tested on: MDA-MB-231; test: Induction of cell cycle arrest in human MDA-MB-231 cells assessed as accumulation at G2/M phase at 1 uM after 24 hrs by flow cytometry (reference value: 22.1 +/- 3.1%); assay type: functional; settings: not given

SMILES | Activity [%]
COc1ccc(-c2cc3ccccc3nc2/C=C/C(=O)c2ccc(Br)s2)cc1 | 30.1

tested on: MDA-MB-231; test: Induction of cell cycle arrest in human MDA-MB-231 cells assessed as accumulation at G2/M phase at 0.5 uM after 24 hrs by flow cytometry (reference value: 22.1 +/- 3.1%); assay type: functional; settings: not given

SMILES | Activity [%]
COc1ccc(-c2cc3ccccc3nc2/C=C/C(=O)c2ccc(Br)s2)cc1 | 28.3

tested on: MDA-MB-231; test: Induction of cell cycle arrest in human MDA-MB-231 cells assessed as accumulation at G2/M phase at 0.1 uM after 24 hrs by flow cytometry (reference value: 22.1 +/- 3.1%); assay type: functional; settings: not given

SMILES | Activity [%]
COc1ccc(-c2cc3ccccc3nc2/C=C/C(=O)c2ccc(Br)s2)cc1 | 25.7

tested on: MDA-MB-231; test: Induction of cell cycle arrest in human MDA-MB-231 cells assessed as accumulation at S phase at 1 uM after 24 hrs by flow cytometry (reference value: 12.4 +/- 2.1%); assay type: functional; settings: not given

SMILES | Activity [%]
COc1ccc(-c2cc3ccccc3nc2/C=C/C(=O)c2ccc(Br)s2)cc1 | 7.2

tested on: MDA-MB-231; test: Induction of cell cycle arrest in human MDA-MB-231 cells assessed as accumulation at S phase at 0.5 uM after 24 hrs by flow cytometry (reference value: 12.4 +/- 2.1%); assay type: functional; settings: not given

SMILES | Activity [%]
COc1ccc(-c2cc3ccccc3nc2/C=C/C(=O)c2ccc(Br)s2)cc1 | 10.1

tested on: MDA-MB-231; test: Induction of cell cycle arrest in human MDA-MB-231 cells assessed as accumulation at S phase at 0.1 uM after 24 hrs by flow cytometry (reference value: 12.4 +/- 2.1%); assay type: functional; settings: not given

SMILES | Activity [%]
COc1ccc(-c2cc3ccccc3nc2/C=C/C(=O)c2ccc(Br)s2)cc1 | 13.1

tested on: MDA-MB-231; test: Induction of cell cycle arrest in human MDA-MB-231 cells assessed as accumulation at G1 phase at 1 uM after 24 hrs by flow cytometry (reference value: 63.1 +/- 2.7%); assay type: functional; settings: not given

SMILES | Activity [%]
COc1ccc(-c2cc3ccccc3nc2/C=C/C(=O)c2ccc(Br)s2)cc1 | 30.1

tested on: MDA-MB-231; test: Induction of cell cycle arrest in human MDA-MB-231 cells assessed as accumulation at G1 phase at 0.5 uM after 24 hrs by flow cytometry (reference value: 63.1 +/- 2.7%); assay type: functional; settings: not given

SMILES | Activity [%]
COc1ccc(-c2cc3ccccc3nc2/C=C/C(=O)c2ccc(Br)s2)cc1 | 39.6

tested on: MDA-MB-231; test: Induction of cell cycle arrest in human MDA-MB-231 cells assessed as accumulation at G1 phase at 0.1 uM after 24 hrs by flow cytometry (reference value: 63.1 +/- 2.7%); assay type: functional; settings: not given

SMILES | Activity [%]
COc1ccc(-c2cc3ccccc3nc2/C=C/C(=O)c2ccc(Br)s2)cc1 | 54.3

tested on: MDA-MB-231; test: Induction of cell cycle arrest in human MDA-MB-231 cells assessed as accumulation at subG1 phase at 1 uM after 24 hrs by flow cytometry (reference value: 3.3 +/- 1.5%); assay type: functional; settings: not given

SMILES | Activity [%]
COc1ccc(-c2cc3ccccc3nc2/C=C/C(=O)c2ccc(Br)s2)cc1 | 33.4

tested on: MDA-MB-231; test: Induction of cell cycle arrest in human MDA-MB-231 cells assessed as accumulation at subG1 phase at 0.5 uM after 24 hrs by flow cytometry (reference value: 3.3 +/- 1.5%); assay type: functional; settings: not given

SMILES | Activity [%]
COc1ccc(-c2cc3ccccc3nc2/C=C/C(=O)c2ccc(Br)s2)cc1 | 23.5

tested on: MDA-MB-231; test: Induction of cell cycle arrest in human MDA-MB-231 cells assessed as accumulation at subG1 phase at 0.1 uM after 24 hrs by flow cytometry (reference value: 3.3 +/- 1.5%); assay type: functional; settings: not given

SMILES | Activity [%]
COc1ccc(-c2cc3ccccc3nc2/C=C/C(=O)c2ccc(Br)s2)cc1 | 8.1

tested on: H184B5F5/M10; test: Antiproliferative activity against human H184B5F5/M10 cells at 0.1 to 5 uM after 12 to 48 hrs by XTT assay; assay type: functional, cell-based; settings: not given

SMILES | Activity
COc1ccc(-c2cc3ccccc3nc2/C=C/C(=O)c2ccc(Br)s2)cc1 | inactive

tested on: MDA-MB-231; test: Antiproliferative activity against human MDA-MB-231 cells at 0.1 to 5 uM by XTT assay; assay type: functional, cell-based; settings: TDE = time-dependent effect

SMILES | Activity
COc1ccc(-c2cc3ccccc3nc2/C=C/C(=O)c2ccc(Br)s2)cc1 | tde

tested on: MDA-MB-231; test: Antiproliferative activity against human MDA-MB-231 cells after 48 hrs by XTT assay; assay type: functional, cell-based; settings: not given

SMILES | Activity
COc1ccc(-c2cc3ccccc3nc2/C=C/C(=O)c2ccc(Br)s2)cc1 | Dose-dependent effect

tested on: not listed separately; test: Antiproliferative activity against human H184B5F5/M10 cells after 72 hrs by XTT assay; assay type: functional, cell-based; settings: H184B5F5/M10, 72 h

SMILES | IC50 [µM]
COc1ccc(-c2cc3ccccc3nc2/C=C/C(=O)c2ccc(OC)cc2OC)cc1 | 6.11
COc1ccc(-c2cc3ccccc3nc2/C=C/C(=O)c2cc(OC)cc(OC)c2)cc1 | 6.66
COc1ccc(-c2cc3ccccc3nc2/C=C/C(=O)c2ccc(F)cc2)cc1 | > 10
COc1ccc(-c2cc3ccccc3nc2/C=C/C(=O)c2ccccn2)cc1 | 4.14
COc1ccc(-c2cc3ccccc3nc2/C=C/C(=O)c2ccc(Br)s2)cc1 | 9.38

tested on: SK-BR-3; test: Antiproliferative activity against human SKBR3 cells after 72 hrs by XTT assay; assay type: functional, cell-based; settings: SK-BR-3, 72 h

IC50 [µM] | SMILES
2.26 | COc1ccc(-c2cc3ccccc3nc2/C=C/C(=O)c2ccc(OC)cc2OC)cc1
0.47 | COc1ccc(-c2cc3ccccc3nc2/C=C/C(=O)c2cc(OC)cc(OC)c2)cc1
0.81 | COc1ccc(-c2cc3ccccc3nc2/C=C/C(=O)c2ccc(F)cc2)cc1
0.37 | COc1ccc(-c2cc3ccccc3nc2/C=C/C(=O)c2ccccn2)cc1
0.52 | COc1ccc(-c2cc3ccccc3nc2/C=C/C(=O)c2ccc(Br)s2)cc1

tested on: MDA-MB-231; test: Antiproliferative activity against human MDA-MB-231 cells after 72 hrs by XTT assay; assay type: functional, cell-based; settings: MDA-MB-231, 72 h

IC50 [µM] | SMILES
3.21 | COc1ccc(-c2cc3ccccc3nc2/C=C/C(=O)c2ccc(OC)cc2OC)cc1
0.92 | COc1ccc(-c2cc3ccccc3nc2/C=C/C(=O)c2cc(OC)cc(OC)c2)cc1
0.83 | COc1ccc(-c2cc3ccccc3nc2/C=C/C(=O)c2ccc(F)cc2)cc1
0.74 | COc1ccc(-c2cc3ccccc3nc2/C=C/C(=O)c2ccccn2)cc1
< 0.1 | COc1ccc(-c2cc3ccccc3nc2/C=C/C(=O)c2ccc(Br)s2)cc1

tested on: MCF7; test: Antiproliferative activity against human MCF7 cells after 72 hrs by XTT assay; assay type: functional, cell-based; settings: MCF7, 72 h

IC50 [µM] | SMILES
6.26 | COc1ccc(-c2cc3ccccc3nc2/C=C/C(=O)c2ccc(OC)cc2OC)cc1
3.23 | COc1ccc(-c2cc3ccccc3nc2/C=C/C(=O)c2cc(OC)cc(OC)c2)cc1
5.45 | COc1ccc(-c2cc3ccccc3nc2/C=C/C(=O)c2ccc(F)cc2)cc1
0.81 | COc1ccc(-c2cc3ccccc3nc2/C=C/C(=O)c2ccccn2)cc1
0.91 | COc1ccc(-c2cc3ccccc3nc2/C=C/C(=O)c2ccc(Br)s2)cc1

tested on: A549; test: Antiproliferative activity against human A549 cells after 72 hrs by XTT assay; assay type: functional, cell-based; settings: A549, 72 h

IC50 [µM] | SMILES
7.99 | COc1ccc(-c2cc3ccccc3nc2/C=C/C(=O)c2ccc(OC)cc2OC)cc1
9.52 | COc1ccc(-c2cc3ccccc3nc2/C=C/C(=O)c2cc(OC)cc(OC)c2)cc1
8.32 | COc1ccc(-c2cc3ccccc3nc2/C=C/C(=O)c2ccc(F)cc2)cc1
6.14 | COc1ccc(-c2cc3ccccc3nc2/C=C/C(=O)c2ccccn2)cc1
6.25 | COc1ccc(-c2cc3ccccc3nc2/C=C/C(=O)c2ccc(Br)s2)cc1

tested on: not listed separately; test: Antiproliferative activity against human H460 cells after 72 hrs by XTT assay; assay type: functional, cell-based; settings: NCI-H460, 72 h

SMILES | IC50 [µM]
COc1ccc(-c2cc3ccccc3nc2/C=C/C(=O)c2ccc(OC)cc2OC)cc1 | 7.04
COc1ccc(-c2cc3ccccc3nc2/C=C/C(=O)c2cc(OC)cc(OC)c2)cc1 | 7.52
COc1ccc(-c2cc3ccccc3nc2/C=C/C(=O)c2ccc(F)cc2)cc1 | 6.99
COc1ccc(-c2cc3ccccc3nc2/C=C/C(=O)c2ccccn2)cc1 | 6.26
COc1ccc(-c2cc3ccccc3nc2/C=C/C(=O)c2ccc(Br)s2)cc1 | 5.17

tested on: not listed separately; test: Antiproliferative activity against human H1299 cells after 72 hrs by XTT assay; assay type: functional, cell-based; settings: NCI-H1299, 72 h

SMILES | IC50 [µM]
COc1ccc(-c2cc3ccccc3nc2/C=C/C(=O)c2ccc(OC)cc2OC)cc1 | 3.77
COc1ccc(-c2cc3ccccc3nc2/C=C/C(=O)c2cc(OC)cc(OC)c2)cc1 | 0.93
COc1ccc(-c2cc3ccccc3nc2/C=C/C(=O)c2ccc(F)cc2)cc1 | 0.82
COc1ccc(-c2cc3ccccc3nc2/C=C/C(=O)c2ccccn2)cc1 | 0.66
COc1ccc(-c2cc3ccccc3nc2/C=C/C(=O)c2ccc(Br)s2)cc1 | 0.71
